Experimental data from patent publication US20230365571A1, “COMPOUNDS AND COMPOSITIONS AS Sppl2a INHIBITORS” (Novartis AG, priority 2020, published 2023).

Columns and labels:
Type in all cases: cell-based
[1] = target: T1, Sppl2a CD74 (Mus musculus, UniProt Q9JJF9); experiment: CD74/p8 mouse whole blood assay, flow cytometry format; conditions: Balb/c mouse whole blood, 5 h, CD74 signal on gated live B cells
T1 construct: Mouse whole blood Balb/c mice (sodium citrate) was ordered by Bioreclamation LLC; tissue Bioreclamation LLC
T1 sequence (Q9JJF9 26-523): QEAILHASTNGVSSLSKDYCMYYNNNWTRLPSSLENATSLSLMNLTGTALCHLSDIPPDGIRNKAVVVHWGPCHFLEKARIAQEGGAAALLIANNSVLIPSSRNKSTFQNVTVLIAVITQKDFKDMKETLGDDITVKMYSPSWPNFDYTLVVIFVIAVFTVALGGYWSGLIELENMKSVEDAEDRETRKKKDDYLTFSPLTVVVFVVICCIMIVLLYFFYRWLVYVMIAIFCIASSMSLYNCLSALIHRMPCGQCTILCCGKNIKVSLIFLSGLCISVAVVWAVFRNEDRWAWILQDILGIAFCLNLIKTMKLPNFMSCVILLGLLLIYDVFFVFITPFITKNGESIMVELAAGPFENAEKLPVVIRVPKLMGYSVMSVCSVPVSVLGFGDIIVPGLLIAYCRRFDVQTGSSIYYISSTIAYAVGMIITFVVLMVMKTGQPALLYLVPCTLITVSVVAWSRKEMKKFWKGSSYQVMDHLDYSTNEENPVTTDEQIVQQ
How it was run: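 Balb/c mouse whole blood (citrate) incubated 5 h at 37 °C with compounds, 11-point dilution from 30 μM top. After RBC lysis, live B220+ B cells stained intracellularly for CD74 (FITC) and analysed by flow cytometry. IC50 fitted from CD74 median fluorescence intensity.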

[2] = target: T2, human SPPL2a (Homo sapiens, UniProt Q8TCT8); experiment: Sppl2a TL (translocation) imaging assay in U-2 OS cells; set-up: expressed in transfected cells; conditions: U-2 OS cells expressing human SPPL2a and EGFP-TNFα(aa1-76) NTF substrate; 24 h
T2 sequence (Q8TCT8 26-520): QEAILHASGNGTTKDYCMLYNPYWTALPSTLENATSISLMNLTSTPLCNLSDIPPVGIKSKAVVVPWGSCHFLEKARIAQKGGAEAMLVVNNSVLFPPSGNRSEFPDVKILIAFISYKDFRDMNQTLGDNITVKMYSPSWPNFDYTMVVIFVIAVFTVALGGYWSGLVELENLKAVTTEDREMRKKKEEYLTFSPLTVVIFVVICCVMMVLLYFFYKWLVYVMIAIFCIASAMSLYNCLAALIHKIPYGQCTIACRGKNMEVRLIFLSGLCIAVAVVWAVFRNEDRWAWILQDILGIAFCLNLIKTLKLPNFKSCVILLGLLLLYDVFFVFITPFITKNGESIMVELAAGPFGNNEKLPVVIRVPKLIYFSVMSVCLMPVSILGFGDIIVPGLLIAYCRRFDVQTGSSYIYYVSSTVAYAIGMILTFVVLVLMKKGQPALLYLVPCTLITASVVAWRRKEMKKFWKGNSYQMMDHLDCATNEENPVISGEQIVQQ
How it was run: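 U-2 OS cells stably expressing human SPPL2a plus doxycycline-induced EGFP-TNFα(aa1-76) NTF, treated 24 h at 37 °C with inhibitor (100 μM–1 nM, 11 points, 0.9% DMSO, 5 μg/mL doxycycline). Imaging of nuclear-minus-cytoplasmic EGFP intensity; % inhibition versus 0.5 μM LY-411,575 and DMSO, IC50 by nonlinear regression; CC50 from cell count.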

[3] = target: T2, human SPPL2a; experiment: Sppl2a RGA (reporter gene assay) in HEK293 cells; set-up: expressed in transfected cells; host or cells: HEK293 (transient); conditions: NT-TNF-VP16-Gal4 substrate, Gal4-luciferase reporter, 24 h
How it was run: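 HEK293 cells transiently co-transfected with human SPPL2a, NT-TNF-VP16-Gal4 substrate and Gal4-luciferase reporter, compound added within 5 h. After 24 h at 37 °C, luciferase luminescence measured; IC50 from concentration versus normalized luminescence.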

| IC50 [1] | IC50 [2] | IC50 [3] | Structure (SMILES) |
| --- | --- | --- | --- |
| 2430 nM | 3 nM | 4 nM | CC[C@H](CNC(=O)c1sc(C(=O)NCC(F)F)nc1C)C(=O)N[C@@H]1C(=O)N2CCCN2Cc2ccccc21 [Example 8, N^2-(2,2-Difluoroethyl)-4-methyl-N^5-((R)-2-(((S)-11-oxo-2,3,10,11-tetrahydro-1H,5H-benzo[d]pyrazolo [1,2-a][1,2]diazepin-10-yl)carbamoyl)butyl) thiazole-2,5-dicarboxamide] |
| 95 nM | 4 nM | 3 nM | CNC(=O)c1nc(C)c(C(=O)NC[C@H](C(=O)N[C@@H]2C(=O)N3CCCN3Cc3ccccc32)C(F)(F)F)s1 [Example 11, N^2,4-Dimethyl-N^5-((R)-3,3,3-trifluoro-2-(((S)-11-oxo-2,3,10,11-tetrahydro-1H,5H-benzo[d]pyrazolo [1,2-a][1,2]diazepin-10-yl)carbamoyl)pro-pyl)thiazole-2,5-dicarboxamide] |
| 1560 nM | 2 nM | 2 nM | Cc1nc(C(=O)NCC(F)F)sc1C(=O)NC[C@H](C(=O)N[C@@H]1C(=O)N2CCCN2Cc2ccccc21)C1CC1 [Example 6, N^5-((R)-2-Cyclopropyl-3-oxo-3-(((S)-11-oxo-2,3,10,11-tetrahydro-1H,5H-benzo[d]pyrazolo [1,2-a][1,2]diazepin-10-yl)amino)propyl)-N^2-(2,2-difluoroethyl)-4-methylthiazole-2,5-dicarboxamide] |
| 100 nM | 1 nM | 12 nM | Cc1nc(NC(=O)C(C)C)sc1C(=O)NC[C@@H](C)C(=O)N[C@@H]1C(=O)N2CCCN2Cc2ccccc21 [Example 4, 2-Isobutyramido-4-methyl-N-((R)-2-methyl-3-oxo-3-(((S)-11-oxo-2,3,10,11-tetrahydro-1H,5H-benzo[d]pyrazolo [1,2-a][1,2]diazepin-10-yl)amino)propyl) thiazole-5-carboxamide] |
| 473 nM | 15 nM | 7 nM | CCn1nc(-c2cc(C)no2)cc1NC(=O)C[C@@H](C)C(=O)N[C@@H]1C(=O)N2CCCN2Cc2ccccc21 [Example 101, (R)-N^4-(1-Ethyl-3-(3-methylisoxazol-5-yl)-1H-pyrazol-5-yl)-2-methyl-N^1-((S)-11-oxo-2,3,10,11-tetrahydro-1H,5H-benzo[d]pyrazolo [1,2-a][1,2]diazepin-10-yl)succinamide] |
| 1130 nM | 12 nM | 168 nM | CC(C)C(=O)Nc1cc(NC(=O)C[C@H](C(=O)N[C@@H]2C(=O)N3CC4(CC4)CN3C(=O)c3ccccc32)C2CC2)n(C)n1 [Example 93, (S)-2-Cyclopropyl-N^1-((S)-5,11-dioxo-10,11-dihydro-1H,3H,5H-spiro[benzo[d]pyrazolo[1,2-a][1,2]diazepine-2,1′-cyclopropan]-10-yl)-N^4-(3-isobutyramido-1-methyl-1H-pyrazol-5-yl)succinamide] |
| 317 nM | 0.3 nM | 57 nM | CC(C)C(=O)Nc1cc(NC(=O)C[C@@H](C)C(=O)N[C@@H]2C(=O)N3CCCN3Cc3ccccc32)n(C)n1 [Example 62, (R)—N^4-(3-Isobutyramido-1-methyl-1H-pyrazol-5-yl)-2-methyl-N^1—((S)-11-oxo-2,3,10,11-tetrahydro-1H,5H-benzo[d]pyrazolo[1,2-a][1,2]diazepin-10-yl)succinamide] |
| 1690 nM | 5 nM | 7 nM | C[C@H](CC(=O)Nc1cc(NC(=O)c2cccc(F)c2F)nn1C)C(=O)N[C@@H]1C(=O)N2CCCN2Cc2ccccc21 [Example 76, (R)-N^4-(3-(2,3-Difluorobenzamido)-1-methyl-1 H-pyrazol-5-yl)-2-methyl-N^1-((S)-11-oxo-2,3,10,11-tetrahydro-1H,5H-benzo[d]pyrazolo [1,2-a][1,2]diazepin-10-yl)succinamide] |
| 741 nM | 83 nM | 41 nM | CC[C@H](CNC(=O)c1sc(C2CC2)nc1C)C(=O)N[C@@H]1C(=O)N2CCCN2Cc2ccccc21 [Example 47, 2-Cyclopropyl-4-methyl-N-((R)-2-(((S)-11-oxo-2,3,10,11-tetrahydro-1H,5H-benzo[d]pyrazolo [1,2-a][1,2]diazepin-10-yl)carbamoyl)butyl) thiazole-5-carboxamide] |
| 910 nM | 7 nM | 8 nM | Cc1cc(-c2cc(NC(=O)C[C@@H](C)C(=O)N[C@@H]3C(=O)N4CCCN4Cc4ccccc43)n(C)n2)no1 [Example 80, (R)-2-Methyl-N^4-(1-methyl-3-(5-methylisoxazol-3-yl)-1H-pyrazol-5-yl)-N^1-((S)-11-oxo-2,3,10,11-tetrahydro-1H,5H-benzo[d]pyrazolo [1,2-a][1,2]diazepin-10-yl)succinamide] |
| 1660 nM | 21 nM | 33 nM | Cc1nc(C(=O)NC(C)C)sc1C(=O)NC[C@@H](C)C(=O)N[C@@H]1C(=O)N2CCCN2Cc2ccccc21 [Example 24, N^2-Isopropyl-4-methyl-N^5-((R)-2-methyl-3-oxo-3-(((S)-11-oxo-2,3,10,11-tetrahydro-1H,5H-benzo[d]pyrazolo [1,2-a][1,2]diazepin-10-yl)amino)propyl) thiazole-2,5-dicarboxamide] |
| 947 nM | 26 nM | 5 nM | Cc1nc(C(=O)NC(C)C)sc1C(=O)NC[C@H](C(=O)N[C@@H]1C(=O)N2CCCN2Cc2ccccc21)C1CC1 [Example 27, N^5-((R)-2-Cyclopropyl-3-oxo-3-(((S)-11-oxo-2,3,10,11-tetrahydro-1H,5H-benzo[d]pyrazolo [1,2-a][1,2]diazepin-10-yl)amino)propyl)-N^2-isopropyl-4-methylthiazole-2,5-dicarboxamide] |
| 847 nM | 62 nM | 27 nM | COCC[C@H](CNC(=O)c1sc(-c2cc(C)no2)nc1C)C(=O)N[C@@H]1C(=O)N2CCCN2Cc2ccccc21 [Example 42, N-((R)-4-Methoxy-2-(((S)-11-oxo-2,3,10,11-tetrahydro-1H,5H-benzo[d]pyrazolo [1,2-a][1,2]diazepin-10-yl)carbamoyl)butyl)-4-methyl-2-(3-methylisoxazol-5-yl)thiazole-5-carboxamide] |
| 420 nM | 24 nM | 9 nM | CC[C@H](CNC(=O)c1onc(C)c1C)C(=O)N[C@@H]1C(=O)N2CCCN2Cc2ccccc21 [Example 25, 3,4-Dimethyl-N-((R)-2-(((S)-11-oxo-2,3,10,11-tetrahydro-1H,5H-benzo[d]pyrazolo [1,2-a][1,2]diazepin-10-yl)carbamoyl)butyl) isoxazole-5-carboxamide] |
| 343 nM | 0.6 nM | 11 nM | CC(C)C(=O)Nc1cc(NC(=O)C[C@H](C(=O)N[C@@H]2C(=O)N3CCCN3Cc3ccccc32)C2CCC2)n(C)n1 [Example 63, (S)-2-Cyclobutyl-N^4-(3-isobutyramido-1-methyl-1H-pyrazol-5-yl)-N^1-((S)-11-oxo-2,3,10,11-tetrahydro-1H,5H-benzo[d]pyrazolo [1,2-a][1,2]diazepin-10-yl)succinamide] |
| 2230 nM | 25 nM | 101 nM | CC[C@H](CNC(=O)c1sc(C2=CCOCC2)nc1C)C(=O)N[C@@H]1C(=O)N2CCCN2Cc2ccccc21 [Example 26, 2-(3,6-Dihydro-2H-pyran-4-yl)-4-methyl-N-((R)-2-(((S)-11-oxo-2,3,10,11-tetrahydro-1H,5H-benzo[d]pyrazolo [1,2-a][1,2]diazepin-10-yl)carbamoyl)butyl) thiazole-5-carboxamide] |
